14 compounds from US10988481B2, “Potent and selective mu opioid receptor modulators” (VIRGINIA COMMONWEALTH UNIVERSITY, priority 2016, dated 2021) can be followed below.

The target of one data set is KOR (Homo sapiens (Human), UniProt P41145). Kind of data set: Competition binding assay at KOR ([3H]DPN, CHO cell membranes). As for the experimental part:
(§1) Chinese hamster ovary (CHO) cells expressing MOR, KOR and DOR were cultured for use in this assay. The culture media used for MOR CHO cells contained 500 mL DMEM/F12 media, 10% FBS, 1% penicillin/streptomycin, and 2.75 mL G418. The DOR and KOR CHO cells were cultured in the same media except that 5% FBS was used instead of 10%. The cells are allowed to grow until they are 80-95% confluent after which they are split. The cells are continuously cultured and split until there were sufficient cells for the studies.
(§2) Once the cells reached confluence, cells were harvested, centrifuged at 1000×g for 10 minutes, and suspended in membrane buffer (50 mM Tris, 3 mM MgCl2, and 1 mM EGTA, pH 7.4). The cells were then homogenized, centrifuged at 50000×g for 10 minutes, and re-homogenized in membrane buffer. A Bradford assay was conducted to determine membrane protein concentrations, and membrane protein preps (3 μg/aliquot) were stored at −80° C.
(§3) The competition binding assay was conducted to determine the affinity and selectivity of the synthesized compounds to MOR over KOR and DOR. The Kd and Bmax values for [^3H]NLX at MOR and [^3H]DPN at KOR had been determined previously. […] [^3H]NLX was used to label MOR whilst [^3H]DPN was used to label both DOR and KOR. The potency of the new compounds in displacing the specific binding of the radioligand was determined by linear regression analysis of Hill plots. […] The IC50 values were determined and converted to Ki values using the Cheng—Prusoff equation (Rosenblum, A. et al. Exp Clin Psychopharmacol. 2008, 16 (5), 405-416).

The target of the next data set is DOR (Homo sapiens (Human), UniProt P41143). Kind of data set: Competition binding assay at DOR ([3H]DPN, CHO cell membranes). As for the experimental part:
as §1, §2, §3

In another data set the target is MOR (Mus musculus, UniProt P42866). It is filed as biochemical. The settings on record: relative to 3 μM DAMGO at MOR. As for the experimental part:
The [^35S]GTPγS functional assay was used to determine whether the synthesized compounds are agonists. The agonist's activity of the compounds was measured relative to 3 μM DAMGO at MOR. In this assay, upon receptor activation due to agonist binding, [^35S]GTPγS binds to the Gα subunit. Thus, [^35S]GTPγS replaces endogenous GTP and since the γ-thiophosphate bond is resistant to hydrolysis by GTPase, [^35S]GTPγS labelled Gα subunits accumulate and can be quantified by measuring the amount of incorporated [^35S].
The Bradford assay was then conducted to determine the concentration of the membrane protein using BSA as the standard. Suitable dilutions of membrane protein, [^35S]GTPγS), cold GTPγS, DAMGO and GDP were made in TME. The desired amount of the protein per tube was 10 μg. All the test-tubes were vortexed and incubated in the shaking water bath at 30° C. for 90 minutes, after which bound radioligand was filtered and rinsed three times with cold Tris buffer. The filtered bound radioligand was then transferred into scintillation tubes with 4 mL of scintillation fluid and radioligand was quantified. However, counting was delayed for 9 hrs to allow the radioactivity to enter the solution. Percent DAMGO stimulation was defined as (net stimulated binding of test compound/net stimulated binding of DAMGO)×100%. The normalized data were subjected to nonlinear regression analysis to determine EC50 and Emax values using Prism 6.0 software (GraphPad Software, San Diego, Calif.). The assay was performed in triplicate and repeated at least three times.

A further data set deals with Swiss Webster mice. Kind of data set: Warm-water tail immersion assay, blockage of the antinociceptive effect of morphine. As for the experimental part: FIG. 1A-D. Warm-water tail immersion assay in mice (n=5) at 56±0.1° C. All tested compounds were administered subcutaneously (s.c.). […] Compounds (10 mg/kg) were injected at Time 0. Twenty minutes after injection, tail flick was assessed with hot water. […] Tested compounds (10 mg/kg) were injected at Time 0. Five minutes later, morphine (10 mg/kg) was administered. Twenty minutes after morphine injection, tail flick was tested using hot water.
(§4) For the in vivo studies, male Swiss Webster mice were used for both the warm-water immersion and opioid withdrawal assays. The mice weighed 23-35 g and were housed five to a cage in animal care quarters maintained at 22° C. on a 12 hour light-dark cycle with food and water available ad libitum. The mice were transferred to the test room and the tests were then conducted 18 hours later. Protocols and procedures were approved by the Institutional Animal Care and Use Committee at Virginia Commonwealth University Medical Center and complied with the recommendations of the International Association for the Study of Pain.
Each indole analogue of naltrexamine was tested for its ability to produce antinociception and/or to antagonize the antinociceptive effects of morphine in mice using the warm-water tail immersion assay described by Coderre and Rollman. The a water bath temperature was maintained at 56±0.1° C. The baseline latency (control) was determined before injecting the compounds into the mice. […] To test for agonism, the tail immersion was conducted 20 min (time that morphine effect starts to peak) after injecting the indole analogues of 6α/β-naltrexamine. To prevent tissue damage, a 10 s maximum cut off time was imposed. Antinociceptive response was calculated as the percentage maximum possible effect (% MPE), where % MPE=[(test−control)/(10−control)]×100. In the antagonism study, the 6α/β-naltrexamine derivatives were given 5 min before morphine. The tail immersion test was conducted 20 min after giving morphine. % MPE was calculated for each mouse using at least five mice per drug. AD50 values were calculated using the least-squares linear regression analysis followed by calculation of 95% confidence interval by Bliss method. A higher % MPE indicates a stronger antinociception effect by the ligand.

A further data set concerns morphine-pelleted mice. Kind of data set: Opioid withdrawal assay in chronic morphine-exposed (pelleted) mice. As for the experimental part:
as §4
A 75 mg morphine pellet was implanted in to the base of the neck of the mice and the mice were then given time to recover in their home cages before the test was conducted. The mice were then allowed for 30 min habituation to an open-topped, square, clear Plexiglas observation chamber (26×26×26 cm^3) with lines partitioning the bottom into quadrants before they were given antagonist. All drugs and test compounds were administered subcutaneously (s.c.). […] Withdrawal commenced within 3 min after antagonist administration. Escape jumps, paw tremors and wet dog shakes were quantified by counting their occurrences over 20 min for each mouse using five mice per drug. The data is given as the mean±SEM. One-way ANOVA followed by the post hoc Dunnett test were performed to assess significance using the Prism 6.0 software.

Setting [1] is: [3H]DPN, KOR CHO membranes, read-out: Ki (nM) ± SEM κ.
The mark [2] stands for this setting: [3H]DPN, DOR CHO membranes, read-out: Ki (nM) ± SEM δ.
[3] abbreviates: 1 mg/kg s.c., morphine-pelleted mice, counted over 20 min, mean±SEM.

Where two headings read alike, the source gives them in different places.

DOR, sequence (P41143 whole entry, looked up): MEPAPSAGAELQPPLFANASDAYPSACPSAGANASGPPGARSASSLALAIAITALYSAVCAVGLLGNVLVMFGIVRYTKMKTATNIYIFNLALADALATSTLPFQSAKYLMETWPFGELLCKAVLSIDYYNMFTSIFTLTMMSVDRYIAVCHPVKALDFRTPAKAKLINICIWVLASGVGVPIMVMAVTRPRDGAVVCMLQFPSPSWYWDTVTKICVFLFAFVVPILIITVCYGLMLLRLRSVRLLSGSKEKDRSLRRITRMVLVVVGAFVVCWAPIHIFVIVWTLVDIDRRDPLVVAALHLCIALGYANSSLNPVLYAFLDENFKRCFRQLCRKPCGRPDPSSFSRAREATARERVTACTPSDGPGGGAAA
MOR, sequence (P42866 whole entry, looked up): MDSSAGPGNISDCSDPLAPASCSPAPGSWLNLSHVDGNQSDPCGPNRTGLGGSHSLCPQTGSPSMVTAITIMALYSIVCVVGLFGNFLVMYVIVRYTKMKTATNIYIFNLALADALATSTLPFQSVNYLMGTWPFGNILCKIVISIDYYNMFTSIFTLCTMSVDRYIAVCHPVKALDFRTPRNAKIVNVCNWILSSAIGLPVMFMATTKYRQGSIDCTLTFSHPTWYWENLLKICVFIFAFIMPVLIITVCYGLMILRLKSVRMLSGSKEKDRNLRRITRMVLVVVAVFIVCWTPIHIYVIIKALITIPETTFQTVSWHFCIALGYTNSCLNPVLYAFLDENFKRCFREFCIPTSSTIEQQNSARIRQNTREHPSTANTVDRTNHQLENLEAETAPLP

In the case of `Cl.O=C(N[C@H]1CC[C@@]2(O)[C@H]3Cc4ccc(O)c5c4[C@@]2(CCN3CC2CC2)[C@H]1O5)c1cc2ccccc2[nH]1` [Compound 1, 17-Cyclopropylmethyl-3,14β-dihydroxy-4,5α-epoxy-6α-(indole-2-carboxamido)morphinan], the Ki (as a rule, the equilibrium dissociation constant of an inhibitor or competing ligand from its target) on KOR (setting [1]) is 0.926 ± 0.125 nM; at DOR (setting [2]) it was 14.2 ± 2.78 nM. The “Emax(% DAMGO) ± SEM” value at MOR is 52.0 ± 13.5 % DAMGO.
Taken in the same sequence, the figures for `Cl.O=C(N[C@H]1CC[C@@]2(O)[C@H]3Cc4ccc(O)c5c4[C@@]2(CCN3CC2CC2)[C@H]1O5)c1c[nH]c2ccccc12` [Compound 2, 17-Cyclopropylmethyl-3,14β-dihydroxy-4,5α-epoxy-6α-(indole-3-carboxamido)morphinan] were 0.984 ± 0.125 nM, 10.5 ± 2.89 nM and 35.4 ± 4.8 % DAMGO.
As for `Cl.O=C(N[C@H]1CC[C@@]2(O)[C@H]3Cc4ccc(O)c5c4[C@@]2(CCN3CC2CC2)[C@H]1O5)c1cccc2[nH]ccc12` [Compound 3, 17-Cyclopropylmethyl-3,14β-dihydroxy-4,5α-epoxy-6α-(indole-4-carboxamido)morphinan], the figures for the Ki on KOR (setting [1]) and on DOR (setting [2]) were 1.49 ± 0.349 nM and 9.26 ± 2.83 nM, respectively. Moreover, on MOR, the “Emax(% DAMGO) ± SEM” value is on record as 28.9 ± 1 % DAMGO.
In the case of `Cl.O=C(N[C@H]1CC[C@@]2(O)[C@H]3Cc4ccc(O)c5c4[C@@]2(CCN3CC2CC2)[C@H]1O5)c1ccc2[nH]ccc2c1` [Compound 4, 17-Cyclopropylmethyl-3,14β-dihydroxy-4,5α-epoxy-6α-(indole-5-carboxamido)morphinan], the Ki is 3.45 ± 0.994 nM at KOR (setting [1]) and 26.7 ± 7.72 nM at DOR (setting [2]). Besides, the “Emax(% DAMGO) ± SEM” value at MOR is listed as 32.2 ± 1.3 % DAMGO.
For the compound `Cl.O=C(N[C@H]1CC[C@@]2(O)[C@H]3Cc4ccc(O)c5c4[C@@]2(CCN3CC2CC2)[C@H]1O5)c1ccc2cc[nH]c2c1` [Compound 5, 17-Cyclopropylmethyl-3,14β-dihydroxy-4,5α-epoxy-6α-(indole-6-carboxamido)morphinan], the Ki is 1.63 ± 0.277 nM on KOR (setting [1]) and 12.8 ± 3.36 nM on DOR (setting [2]). Besides, on MOR, the “Emax(% DAMGO) ± SEM” value was 27.0 ± 0.31 % DAMGO.
For the compound `Cl.O=C(Cc1c[nH]c2ccccc12)N[C@H]1CC[C@@]2(O)[C@H]3Cc4ccc(O)c5c4[C@@]2(CCN3CC2CC2)[C@H]1O5` [Compound 7, 17-Cyclopropylmethyl-3,14β-dihydroxy-4,5α-epoxy-6α-[2-(indol-3-yl)acetamido)morphinan], the Ki at KOR (setting [1]) amounted to 3.13 ± 0.449 nM; at DOR (setting [2]) it was 9.17 ± 2.67 nM. Besides, the “Emax(% DAMGO) ± SEM” value at MOR stood at 33.88 ± 1.43 % DAMGO.
As to `Cl.O=C(CCc1c[nH]c2ccccc12)N[C@H]1CC[C@@]2(O)[C@H]3Cc4ccc(O)c5c4[C@@]2(CCN3CC2CC2)[C@H]1O5` [Compound 8, 17-Cyclopropylmethyl-3,14β-dihydroxy-4,5α-epoxy-6α-[3-(indol-3-yl)propanamido)morphinan], the Ki was 1.36 ± 0.178 nM on KOR (setting [1]) and 31.2 ± 8.12 nM at DOR (setting [2]). Further, the “Emax(% DAMGO) ± SEM” value at MOR is given as 41.10 ± 6.54 % DAMGO.
`Cl.O=C(CCCc1c[nH]c2ccccc12)N[C@H]1CC[C@@]2(O)[C@H]3Cc4ccc(O)c5c4[C@@]2(CCN3CC2CC2)[C@H]1O5` [Compound 9, 17-Cyclopropylmethyl-3,14β-dihydroxy-4,5α-epoxy-6α-[4-(indol-3-yl)butanamido)morphinan]: the Ki on KOR (setting [1]) worked out at 0.149 ± 0.033 nM; on DOR (setting [2]) it was 6.73 ± 0.396 nM. Moreover, on MOR, the “Emax(% DAMGO) ± SEM” value was 48.36 ± 5.17 % DAMGO.
For `O=C(N[C@@H]1CC[C@@]2(O)[C@H]3Cc4ccc(O)c5c4[C@@]2(CCN3CC2CC2)[C@H]1O5)c1c[nH]c2ccccc12` [Compound 11, 17-Cyclopropylmethyl-3,14β-dihydroxy-4,5α-epoxy-6β-(indole-3-carboxamido)morphinan], the Ki on KOR is 0.16 ± 0.005 nM; at DOR, 7.17 ± 1.23 nM.
In the case of `Cl.O=C(N[C@@H]1CC[C@@]2(O)[C@H]3Cc4ccc(O)c5c4[C@@]2(CCN3CC2CC2)[C@H]1O5)c1cccc2[nH]ccc12` [Compound 12, 17-Cyclopropylmethyl-3,14β-dihydroxy-4,5α-epoxy-6β-(indole-4-carboxamido)morphinan], the Ki on KOR amounted to 1.94 ± 0.299 nM; on DOR, 45.9 ± 16.3 nM. For the same compound, the “Emax(% DAMGO) ± SEM” value on MOR stood at 15.21 ± 3.13 % DAMGO.
Taken in the same sequence, the figures for `Cl.O=C(N[C@@H]1CC[C@@]2(O)[C@H]3Cc4ccc(O)c5c4[C@@]2(CCN3CC2CC2)[C@H]1O5)c1ccc2[nH]ccc2c1` [Compound 13, 17-Cyclopropylmethyl-3,14β-dihydroxy-4,5α-epoxy-6β-(indole-5-carboxamido)morphinan] were 0.512 ± 0.038 nM, 17.7 ± 4.78 nM and 20.15 ± 4.37 % DAMGO.
For the compound `O=C(N[C@@H]1CC[C@@]2(O)[C@H]3Cc4ccc(O)c5c4[C@@]2(CCN3CC2CC2)[C@H]1O5)c1ccc2cc[nH]c2c1` [Compound 14, 17-Cyclopropylmethyl-3,14β-dihydroxy-4,5α-epoxy-6β-(indole-6-carboxamido)morphinan], the Ki was found to be 0.166 ± 0.012 nM on KOR and 6.23 ± 0.825 nM on DOR.
Consider `Cl.O=C(CCc1c[nH]c2ccccc12)N[C@@H]1CC[C@@]2(O)[C@H]3Cc4ccc(O)c5c4[C@@]2(CCN3CC2CC2)[C@H]1O5` [Compound 17, 17-Cyclopropylmethyl-3,14β-dihydroxy-4,5α-epoxy-60-[3-(indol-3-yl)propanamido)morphinan], for which the Ki amounted to 0.387 ± 0.045 nM on KOR (setting [1]) and 49 ± 4.72 nM at DOR (setting [2]). The “Emax(% DAMGO) ± SEM” value on MOR amounted to 40.43 ± 5.28 % DAMGO. In addition, the “Blockage of morphine-mediated antinociception” value in the data set with Swiss Webster mice (10 mg/kg s.c. 5 min before morphine 10 mg/kg, tested 20 min after morphine) is “effectively blocked morphine-mediated antinociception”. The “AD50 (95% CL), opioid antagonist effect” value in the data set with Swiss Webster mice (dose-dependent study against morphine, s.c.) was 7.30 (3.38-15.74) mg/kg.
For `O=C1CC[C@@]2(O)[C@H]3Cc4ccc(O)c5c4[C@@]2(CCN3CC2CC2)[C@H]1O5` [NTX, naltrexone, reference compound], in the data set on morphine-pelleted mice (setting [3]), the Escape jumps is on record as 39.0±14.2 times, the Paw tremors worked out at 43.4±15.7 and the Wet-dog shakes was determined as 18.6±1.2 times. Also, in the data set on morphine-pelleted mice (1 mg/kg, morphine pelleted mice (not in placebo pelleted mice)), the Diarrhea result is on record as “produced diarrhea”.
